Assay results as given in publication PMC8899820, “Pharmacokinetics, Tissue Distribution, and Excretion Characteristics of a Radix Polygoni Multiflori Extract in Rats” (Frontiers in Pharmacology, 2022).
Like-named read-outs stand apart in the source and are kept apart here. Blank lines part the entries; values can stand above or below the compound they belong to.

Tests used:
[1] = RPM extract 36 g/kg p.o., rat plasma, Mean ± SD, n = 6; ref Cheng et al., 2020; cited from earlier work
[2] = cited from earlier work
[3] = Tissue distribution of RPM constituents after oral RPM extract; details: for AUC(0-t): Sprague-Dawley, rat, po, 18 g/kg
Method: For the tissue distribution study, 18 rats were randomly divided into three groups (n = 6, each) and orally administered 18 g/kg RPM extract. The rats under isoflurane anesthesia were sacrificed by bleeding from the abdominal aorta at 5, 15, and 60 min (six rats per time point) after gavage with 18 g/kg RPM extract. Subsequently, the heart, liver, spleen, lung, kidney, brain, stomach, small intestine, bladder, and gonads (testes of male rats, and uterus and ovaries of female rats) were immediately collected. An accurately weighed amount of fresh tissue sample (0.25 g) was individually homogenized with normal saline (1 ml) and transferred (50 μL) as a tissue homogenate to 1.5 ml centrifuge tubes for use as the tissue samples. All tissue samples were stored at −70°C until analysis.
Samples were prepared using the protein precipitation process. […] The tissue samples were homogenized in four parts of ice-cold 0.9% saline solution and then centrifuged at 4°C and 12,000 × g for 10 min to obtain tissue homogenates. […] Tissue homogenate, urine, bile and fecal samples were subjected to a similar process as the rat plasma samples.
For the tissue distribution study, 18 rats were randomly divided into three groups (n=6, each), and orally administered with 18 g/kg RPM extract. The rats were sacrificed at 5, 15, 60 min after orally administering RPM. Subsequently, the heart, liver, spleen, lung, kidney, brain, stomach, small intestine, bladder, gonad (testes of male rats, uterus and ovaries of female rats) were immediately collected. An accurately weighed amount of fresh tissue sample (0.25 g) was individually homogenized with normal saline (1 mL) and transferred (50 μL) as a tissue homogenate to 1.5 mL centrifuge tubes for use as the tissue samples.

[4] = Plasma pharmacokinetics of RPM constituents after oral RPM extract; details: for time at which C max was exhibited: RPM extract p.o.; for AUC(0-inf) / AUC(0-t) / Cmax / MRT inf / Tmax / half-life: Sprague-Dawley, rat, plasma, po
From the text: For the pharmacokinetic (PK) study, three groups (n = 6 each) of rats were orally administered RPM extract (6, 18, and 36 g/kg). In the plasma pharmacokinetics experiment, doses were 6, 18, and 36 g/kg for the single administration group and 18 g/kg for the continuous administration group. The doses were set at a subtoxic level ([Zhang et al., 2013]; [Wang et al., 2015]) to investigate the pharmacokinetic profiles of the constituents of RPM (36 g/kg group) and were approximately 60 times the upper dose (6 g/day) for humans recommended by the 2020 edition of Chinese Pharmacopoeia ([Chinese Pharmacopoeia Commission, 2020]), which was converted to a dose for rats based on body surface area conversion ([Reagan-Shaw et al., 2008]). In addition, the low and medium doses decreased in a certain proportion. Serial blood samples (∼120 μL; before dosing and at 5, 15, and 30 min, and 1, 2, 4, 6, 8, 12, and 24 h after administration) were collected in heparinized tubes from the orbital sinus under light isoflurane. The blood samples were centrifuged at 12000 g for 2 min, and the plasma fractions were decanted and frozen at −70°C until analysis.
Samples were prepared using the protein precipitation process. Rat plasma (50 μL) spiked with 10 μL of IS (puerarin 100 ng/ml) was extracted with 150 μL acetonitrile. After vortex shaking for 5 min and centrifugation at 14,000 g for 5 min, 150 μL of the organic layer was transferred to a clean tube and evaporated to dryness at 25°C under a stream of nitrogen. The residue was reconstituted in 50 μL of the initial mobile phase and subjected to another round of centrifugation at 14,000 g for 5 min, and 5 μL of the supernatant was injected for LC–MS/MS analysis.
The analysis was performed on an AB Sciex API 5500 Q Trap mass spectrometer (Toronto, Canada), interfaced with a Waters Acquity UPLC separation module.
(§1) The pharmacokinetic parameters, including the area under the plasma concentration-time curve from time zero to time t (AUC0-t) to time infinity (AUC0-∞), the time to reach the maximum plasma concentration (T max), the elimination half-time (t 1/2), and the maximum plasma concentration (C max), were calculated using the pharmacokinetic software Phoenix® WinNonlin®, version 7.0 (Scientific Consulting Inc., Apex, NC, United States). Data are expressed as the mean ± standard deviation (SD) for each group. The dose-exposure relationship was evaluated by the power function model combined with the confidence interval method ([Smith et al., 2000]; [Sethuraman et al., 2007]; [Hummel et al., 2009]). First, the administration dose, AUC0-∞ and C max were logarithmically transformed, and then a linear regression was performed to obtain the curve correlation coefficient (R^2), slope and 90% confidence interval (90% CI).

[5] = Biliary excretion in bile duct drained rats after oral RPM extract; details: single p.o. RPM extract 18 g/kg, rat bile
Method: (§2) For the excretion study, the rats were housed singly in metabolic cages with urine collection tubes kept at 4 °C during sample collection. Urine and fecal samples were collected at time intervals of 0–4, 4–8, 8–24, 24–32, and 32–48 h after a single dose of RPM extract at 18 g/kg and then weighed. Another six rats were anesthetized with pentobarbital, fixed in the supine position and subjected to bile duct drainage surgery, and the abdominal wound was sutured. Blank bile samples were collected before the administration of RPM. The rats were weighed, and the state of the rats was observed. Subsequently, they were orally administered 18 g/kg RPM extract. The bile samples were collected at time intervals of 0–1, 1–2, 2–4, 4–6, 6–8, 8–24, 24–32 and 32–48 h. The urine, feces, and bile samples were stored at −70°C until use.
(§3) Samples were prepared using the protein precipitation process. […] After vortex shaking for 5 min and centrifugation at 14,000 g for 5 min, 150 μL of the organic layer was transferred to a clean tube and evaporated to dryness at 25°C under a stream of nitrogen. The residue was reconstituted in 50 μL of the initial mobile phase and subjected to another round of centrifugation at 14,000 g for 5 min, and 5 μL of the supernatant was injected for LC–MS/MS analysis. […] Urine and bile samples were centrifuged at 4°C and 12,000 × g for 15 min. Fecal samples were homogenized in 0.9% saline and then centrifuged at 4°C and 12,000 × g for 15 min to gather the fecal homogenates. Tissue homogenate, urine, bile and fecal samples were subjected to a similar process as the rat plasma samples.
(§4) For the excretion study, 6 rats were placed in metabolic cage after orally administered with 18 g/kg RPM extract, and urine, feces samples were collected at time intervals of 0–4, 4–8, 8–24, 24–32, 32–48, 48–60, and 60–72 h. Another 6 rats were anesthetized with pentobarbital, fixed in the supine position and performed bile duct drainage operation, and the abdominal wound was sutured. […] Subsequently, they were orally administered with 18 g/kg RPM extract. The bile samples were collected at time intervals of 0–1, 1–2, 2–4, 4–6, 6–8, 8–24, 24–32 and 32–48 h. The urine, feces, and bile samples were stored at −70 °C until use.

[6] = Excretion into urine and feces and mass balance after oral RPM extract; details: for dose excreted: Sprague-Dawley, rat, po, mass balance, 18 g/kg RPM extract p.o.; for cumulative excretion into feces / cumulative excretion into urine: single p.o. RPM extract 18 g/kg; for cumulative excretion into feces: rat feces; for cumulative excretion into urine: rat urine
Method: as §2, §3, §4

[7] = Dose-exposure relationship (power function model with confidence interval method)
Method: as §1

[8] = design: method as in Wang P. et al., 2011; details: ref Wang P. et al., 2011, cited from earlier work
[9] = feces, Recovery in feces (%), feces collected 0–72 h
[10] = urine and feces, Recovery in urine and feces (%), urine plus feces, 0–72 h
[11] = urine, Recovery in urine (%), urine collected 0–72 h
[12] = AUC0-∞ vs p.o. dose of RPM extract, critical interval 0.88–1.12
[13] = C max vs p.o. dose of RPM extract, critical interval 0.80–1.20
[14] = log AUC0-∞ vs log p.o. dose of RPM extract, critical interval 0.88–1.12
[15] = log C max vs log p.o. dose of RPM extract, critical interval 0.80–1.20
[16] = both, bladder, AUC0-t in bladder, rat tissue: bladder, 18 g/kg RPM extract p.o., tissues collected at 5, 15, 60 min
[17] = both, brain, AUC0-t in brain, rat tissue: brain, 18 g/kg RPM extract p.o., tissues collected at 5, 15, 60 min
[18] = both, heart, AUC0-t in heart, rat tissue: heart, 18 g/kg RPM extract p.o., tissues collected at 5, 15, 60 min
[19] = both, intestine, AUC0-t in intestine, rat tissue: intestine, 18 g/kg RPM extract p.o., tissues collected at 5, 15, 60 min
[20] = both, kidney, AUC0-t in kidney, rat tissue: kidney, 18 g/kg RPM extract p.o., tissues collected at 5, 15, 60 min
[21] = both, liver, AUC0-t in liver, rat tissue: liver, 18 g/kg RPM extract p.o., tissues collected at 5, 15, 60 min
[22] = both, lung, AUC0-t in lung, rat tissue: lung, 18 g/kg RPM extract p.o., tissues collected at 5, 15, 60 min
[23] = both, spleen, AUC0-t in spleen, rat tissue: spleen, 18 g/kg RPM extract p.o., tissues collected at 5, 15, 60 min
[24] = both, stomach, AUC0-t in stomach, rat tissue: stomach, 18 g/kg RPM extract p.o., tissues collected at 5, 15, 60 min
[25] = female, ovary, AUC0-t in ovary, rat tissue: ovary, 18 g/kg RPM extract p.o., tissues collected at 5, 15, 60 min
[26] = female, uterus, AUC0-t in uterus, rat tissue: uterus, 18 g/kg RPM extract p.o., tissues collected at 5, 15, 60 min
[27] = male, testis, AUC0-t in testis, rat tissue: testis, 18 g/kg RPM extract p.o., tissues collected at 5, 15, 60 min

SMILES: Cc1cc(O)c2c(c1)C(=O)c1cc(O)cc(O)c1C2=O [Emodin, emodin]
AUC0-∞ [1]: 2,970 ± 863 nmol·h/L
AUC(0-t) [1]: 2,540 ± 694 nmol·h/L
Cmax [1]: 648 ± 125 nM
logP ([2]; ref Liu et al., 2010): 5.03
AUC(0-t) ([3]; both, bladder): 0.988 µM·h
AUC(0-t) ([3]; both, brain): 0.244 µM·h
AUC(0-t) ([3]; both, heart): 1.64 µM·h
AUC(0-t) ([3]; both, intestine): 5.57 µM·h
AUC(0-t) ([3]; both, kidney): 2.83 µM·h
AUC(0-t) ([3]; both, liver): 6.36 µM·h
AUC(0-t) ([3]; both, lung): 7.11 µM·h
AUC(0-t) ([3]; both, spleen): 19.1 µM·h
AUC(0-t) ([3]; both, stomach): 1.72 µM·h
AUC(0-t) ([3]; female, ovary): 0.57 µM·h
AUC(0-t) ([3]; female, uterus): 0.773 µM·h
AUC(0-t) ([3]; male, testis): 0.116 µM·h
AUC0-t in spleen ([3]; rat tissue: spleen, 18 g/kg RPM extract p.o., tissues collected at 5, 15, 60 min): 19.1 µM·h
time at which C max was exhibited ([4]; rat plasma): ≤ 20 min
AUC(0-inf) ([4]; 6 g/kg): 1.35 µM·h
AUC(0-t) ([4]; 6 g/kg): 1.04 µM·h
Cmax ([4]; 6 g/kg): 205 ± 39.4 nM
MRT inf ([4]; 6 g/kg): 12.7 ± 4.65 h
Tmax ([4]; 6 g/kg): 0.12 ± 0.07 h
half-life ([4]; 6 g/kg): 7.72 ± 3.67 h
AUC(0-inf) ([4]; 18 g/kg): 2.91 µM·h
AUC(0-t) ([4]; 18 g/kg): 2.48 µM·h
Cmax ([4]; 18 g/kg): 491 ± 35.8 nM
MRT inf ([4]; 18 g/kg): 13 ± 4.18 h
Tmax ([4]; 18 g/kg): 0.14 ± 0.09 h
half-life ([4]; 18 g/kg): 9.44 ± 3.63 h
cumulative excretion into bile [5]: 70.7 ± 20.4 nmol
dose excreted [6, 9]: 23.6%
dose excreted [6, 10]: 32.5%
dose excreted [6, 11]: 8.82%
cumulative excretion into feces [6]: 50.3 ± 6.18 nmol
cumulative excretion into urine [6]: 19.0 ± 3.81 nmol
Conclusion (dose-exposure relationship) [7, 12]: Nonlinear correlation
Conclusion (dose-exposure relationship) [7, 13]: Nonlinear correlation
Slope (90%CI) [7, 14]: 0.466 (0.290–0.642)
Slope (90%CI) [7, 15]: 0.656 (0.554–0.758)

plasma concentrations ([4]; RPM extract 6, 18 and 36 g/kg p.o., rat plasma): too low to be detected
SMILES: COc1cc(O)c2c(c1)C(=O)c1cc(C)cc(O)c1C2=O [Physcion, physcion]
Peff ([8]; colon): (7.45 ± 3.30) × 10^–3 cm/min
Peff ([8]; duodenum): (3.32 ± 1.50) × 10^–3 cm/min
Peff ([8]; ileum): (2.40 ± 0.58) × 10^–3 cm/min
Peff ([8]; jejunum): (2.30 ± 1.57) × 10^–3 cm/min

AUC(0-t) [3, 16]: 0.438 µM·h
AUC(0-t) [3, 17]: 0.0185 µM·h
AUC(0-t) [3, 18]: 1.78 µM·h
AUC(0-t) [3, 19]: 0.181 µM·h
AUC(0-t) [3, 20]: 0.845 µM·h
AUC(0-t) [3, 21]: 3.81 µM·h
AUC(0-t) [3, 22]: 0.438 µM·h
AUC(0-t) [3, 23]: 1.19 µM·h
AUC(0-t) [3, 24]: 1.46 µM·h
AUC(0-t) [3, 25]: 0.153 µM·h
AUC(0-t) [3, 26]: 0.38 µM·h
AUC(0-t) [3, 27]: 0.0698 µM·h
time at which C max was exhibited ([4]; rat plasma): ≤ 20 min
AUC(0-inf) ([4]; 6 g/kg): 0.0166 ± 0.0109 µM·h
AUC(0-t) ([4]; 6 g/kg): 0.0158 ± 0.0106 µM·h
Cmax ([4]; 6 g/kg): 12.4 ± 2.66 nM
MRT inf ([4]; 6 g/kg): 1.58 ± 0.77 h
Tmax ([4]; 6 g/kg): 0.19 ± 0.09 h
half-life ([4]; 6 g/kg): 1.23 ± 0.58 h
AUC(0-inf) ([4]; 18 g/kg): 0.0495 ± 0.0171 µM·h
AUC(0-t) ([4]; 18 g/kg): 0.048 ± 0.0172 µM·h
Cmax ([4]; 18 g/kg): 37.3 ± 4.57 nM
MRT inf ([4]; 18 g/kg): 2.23 ± 0.3 h
Tmax ([4]; 18 g/kg): 0.11 ± 0.07 h
half-life ([4]; 18 g/kg): 1.9 ± 0.22 h
cumulative excretion into bile [5]: 8.96 ± 2.38 nmol
dose excreted [6, 9]: 27.9%
dose excreted [6, 10]: 45.5%
dose excreted [6, 11]: 17.6%
cumulative excretion into feces [6]: 30.4 ± 5.73 nmol
cumulative excretion into urine [6]: 19.1 ± 2.99 nmol
Conclusion (dose-exposure relationship) [7, 12]: Uncertainty of linear relationship
Slope (90%CI) [7, 14]: 0.720 (0.464–0.977)
Slope (90%CI) [7, 15]: 0.756 (0.627–0.884)
SMILES: COc1cc(O[C@@H]2O[C@H](CO)[C@@H](O)[C@H](O)[C@H]2O)c2c(O)c(C(C)=O)c(C)cc2c1 [TG, torachrysone-8-O-glucoside]
AUC0-∞ [1]: 53.0 ± 18.3 nmol·h/L
AUC(0-t) [1]: 51.9 ± 18.1 nmol·h/L
Cmax [1]: 45.8 ± 9.94 nM
MRT0-∞ [1]: 2.10 ± 0.24 h
t 1/2 [1]: 2.00 ± 0.63 h

AUC(0-t) [3, 16]: 18.2 µM·h
AUC(0-t) [3, 17]: 6.42 µM·h
AUC(0-t) [3, 18]: 45.5 µM·h
AUC(0-t) [3, 19]: 71.7 µM·h
AUC(0-t) [3, 20]: 86.4 µM·h
AUC(0-t) ([3]; both, kidney, AUC0-t in the kidney, RPM extract 18 g/kg p.o., rat kidney, sampling 5, 15, 60 min): 86.4 µM·h
AUC(0-t) [3, 21]: 114 µM·h
AUC(0-t) [3, 22]: 35.1 µM·h
AUC(0-t) [3, 23]: 68.7 µM·h
AUC(0-t) [3, 24]: 47.9 µM·h
AUC(0-t) [3, 25]: 7.59 µM·h
AUC(0-t) [3, 26]: 12.2 µM·h
AUC(0-t) [3, 27]: 7.77 µM·h
time at which C max was exhibited ([4]; rat plasma): ≤ 20 min
AUC(0-inf) ([4]; 6 g/kg): 2.46 µM·h
AUC(0-t) ([4]; 6 g/kg): 2.38 µM·h
Cmax ([4]; 6 g/kg): 1670 nM
MRT inf ([4]; 6 g/kg): 3.86 ± 1.17 h
Tmax ([4]; 6 g/kg): 0.24 ± 0.15 h
half-life ([4]; 6 g/kg): 6.53 ± 2.45 h
AUC(0-inf) ([4]; 18 g/kg): 4.2 µM·h
AUC(0-t) ([4]; 18 g/kg): 4.04 µM·h
Cmax ([4]; 18 g/kg): 3260 nM
MRT inf ([4]; 18 g/kg): 4.37 ± 0.91 h
half-life ([4]; 18 g/kg): 6.54 ± 2.02 h
cumulative excretion into bile [5]: 410 ± 55.4 nmol
dose excreted [6, 9]: 24.6%
dose excreted [6, 10]: 38.9%
dose excreted [6, 11]: 14.3%
cumulative excretion into feces [6]: 2778 ± 349 nmol
cumulative excretion into urine [6]: 1619 ± 208 nmol
Conclusion (dose-exposure relationship) [7, 12]: Nonlinear correlation
Conclusion (dose-exposure relationship) [7, 13]: Nonlinear correlation
Slope (90%CI) [7, 14]: 0.342 (0.204–0.479)
Slope (90%CI) [7, 15]: 0.536 (0.422–0.649)
SMILES: OC[C@H]1O[C@@H](Oc2c(O)cc(O)cc2/C=C/c2ccc(O)cc2)[C@H](O)[C@@H](O)[C@@H]1O [TSG, 2,3,5,4′-teterahydroxystilbene-2-O-β-D-glucoside]
AUC0-∞ [1]: 4,610 ± 1,430 nmol·h/L
AUC(0-t) [1]: 4,460 ± 1,360 nmol·h/L
Cmax [1]: 4290 nM
logP ([2]; no source given): 0.10
